The values below come from article PMC3793977, “High-Throughput Screening (HTS) and Hit Validation to Identify Small Molecule Inhibitors with Activity against NS3/4A proteases from Multiple Hepatitis C Virus Genotypes” (PLoS ONE, 2013).

The IC50 is the concentration that gives 50% inhibition. Read a high IC50 as a need for much substance. The term EC50 denotes the concentration at which the effect is half-maximal.

Experiment [1] has as its target T1, HCV replicon cell lysate sg 1b (NS3) (Hepatitis C virus genotype 1b, UniProt Q9WMX2).
T1 construct: host or cells: Huh7 Clone B cells stably replicating an HCV 1b subgenomic replicon; whole cell lysate
Description: Whole cell lysate inhibition assay, HCV subgenomic replicon 1b. The experiment is classed as biochemical. As to the method:
(§1) Huh7-1 cells (also known as Huh7/scr cells) were obtained from F.V. Chisari (The Scripps Research Institute, La Jolla, CA). Clone B HCV sub-genotype 1b Huh7 cells were obtained from the NIH AIDS Research and Reference Reagent Program and have been previously described. Huh7 cells stably replicating the sub-genotype 2a HCV JFH-1 replicon were generated as previously described. All cells were cultured in complete Dulbecco’s modified Eagle’s medium (DMEM) supplemented with 10% fetal bovine serum, 100 units/mL penicillin, […] streptomycin, and 2 mM L-glutamine. HCV replicon cells were maintained in 500 µg/mL Geneticin (Invitrogen). For NS3 inhibition analysis, lysates from parental Huh7 cells and HCV replicon cells were harvested on ice in pre-chilled FRET cell lysis buffer (50 mM Tris-HCl, pH 7.5; 150 mM NaCl, 2 mM EDTA, 1.25% Triton X-100). Lysates were brought to room temperature and mixed 1∶1 with 2× FRET assay buffer (100 mM Tris-HCl, pH 7.5, 300 mM NaCl, 4 mM EDTA, 2.5% Triton X-100, 10 mM GSH, and 4 µM substrate). Fluorescence intensity was continuously monitored for 1 hour, and IC50 values were determined in the same way as biochemical assays.
On the technique in general: In antiviral work, replicon cells carry a viral genome segment that copies itself.

Another experiment concerns the target T2, full-length NS3/4A (Hepatitis C virus genotype 1b, UniProt Q9WMX2).
T2 construct: wild-type HCV NS3 (HCV polyprotein residues 1027–1657); His-tag (N); made in house
The experiment in a line: Type (mechanism) of enzyme inhibition, kinetic analysis. The note with it: with respect to the substrate, best fit model. The experiment is classed as biochemical. As to the method:
Full-length NS3/4A activity was monitored in the same way as the primary screening with varying concentration of both inhibitor compounds and substrate (0–8 µM). The concentration of compounds varied from 0 to 20 µM at 1.5-fold dilution factor.

In experiment [2] the target is T3, HCV replicon cell lysate sg 2a (NS3) (Hepatitis C virus genotype 2a, UniProt Q99IB8).
T3 construct: expressed in transfected cells; host or cells: Huh7 cells stably replicating the JFH-1 subgenomic replicon; whole cell lysate
Description: Whole cell lysate inhibition assay, HCV subgenomic replicon 2a. It is filed as biochemical. On the procedure:
as §1

Experiment [3] addresses T4, NS3/4A protease genotype 2a (Hepatitis C virus genotype 2a, UniProt Q99IB8).
T4 construct: against the NS3/4A protease domains from three additional HCV genotypes (1a, 2a, and 4d); purchased Anaspec
The experiment in a line: Inhibition assay with NS3/4A from genotype 2a. The conditions noted are these: IC50 Purified NS3/4A Sub-genotype 2a, genotype 2a. It is filed as biochemical. As to the method: The inhibitory activity of the final hit compounds from HTS were tested against three other HCV genotypes (1a, 2a, and 4d), along with a control (genotype 1b) and five NS3 drug-resistant mutants. Eight full-length NS3 mutants (V36M, R155K, A156T, A156S, 156V, V36A, T54A, and R155T) were generated by mutagenesis and purified, and the three HCV NS3/4A protease genotypes were purchased from Anaspec. Unfortunately the enzyme activities of the three mutants V36A, T54A, and R155T were much less than that of the rest of the mutants and were insufficient for testing, therefore mutant studies were done with the five active mutants. Continuous kinetic assays were performed against all hit compounds in the same way as the wild-type NS3/4A. As a control, full-length NS3/4A (genotype 1b) was tested under the same conditions for direct comparison for each plate.

A further experiment addresses T5, NS3 protease domain (Hepatitis C virus genotype 1b, UniProt Q9WMX2).
T5 construct: the full-length NS3/4A and the NS3/4A protease domain alone
Description: Fluorescence enzymatic assay with NS3 protease domain alone. It is filed as biochemical. As to the method: (§2) A series of compound concentrations (0 to 200 µM final concentration at 2-fold serial dilution) in 100% DMSO were prepared in a 384-well plate. 20 µL of enzyme solution was distributed to wells, and 0.5 µL of varying concentration of compounds were added and incubated for 5 minutes. The enzyme reaction was initiated by adding 5 µL of the substrate, and its activity was continuously monitored for 6 minutes. The IC50 values were calculated by fitting with the Hill equation (1), with OriginPro 8.5 (OriginLab, Inc.) where y is percent inhibition, x is inhibitor concentration, n is the slope of the concentration–response curve (Hill slope), and Vmax is maximal inhibition from two to four independent assays. [drawing 1] (1)

For a further experiment, the system named is replicon cells 2a. Also on record: method as in PMID 19457562, PMID 14578911. The conditions noted are these: cited from earlier work.
In the next experiment the test system is replicon cells 1b. Also on record: method as in PMID 19457562, PMID 14578911. The note with it: cited from earlier work.
In experiment [4] the target is T6, full-length NS3/4A protease (genotype 1b) (Hepatitis C virus genotype 1b, UniProt Q9WMX2).
T6 construct: wild-type HCV NS3 (HCV polyprotein residues 1027–1657); His-tag (N); made in house
Description: biochemical. The conditions noted are these: IC50 Full-length NS3/4A, purified full-length NS3/4A, genotype 1b wild-type. As to the method:
All assays were done in duplicate in black 384-well plates (Matrix Technologies). […] 200 nL of 10 mM compound (50 µM final concentrations) were then added and incubated for 5 minutes. Enzyme reactions were initiated with 10 µL of substrate Ac-DE-Dap(QXL520)-EE-Abu-ψ-[COO]AS-C(5-FAMsp)-NH2 (Anaspec) (1 µM final concentration), incubated for 6 minutes, and quenched by 10 µL of 10% SDS as a stop solution. Fluorescence intensity was monitored with a POLARstar OPTIMA microplate reader (BMG LABTECH). Each plate contained a total of 32 positive and 32 negative controls.
as §2

On to `COc1ccc2c(O[C@@H]3C[C@H]4C(=O)N[C@]5(C(=O)O)C[C@H]5/C=C\CCCCC[C@H](NC(=O)OC5CCCC5)C(=O)N4C3)cc(-c3csc(NC(C)C)n3)nc2c1` [BILN-2061, reference compound], for which, in experiment [1] (sg1b lysate compared to purified enzyme), the “fold increase of IC50, whole cell lysate 1b vs biochemical assay” value was around 8 fold. In addition, the IC50 in experiment [1] (whole cell lysate, subgenomic replicon 1b) stood at 37 ± 10 nM; in experiment [2] (whole cell lysate, subgenomic replicon 2a), 230 ± 30 nM; in experiment [3], 12 ± 1 nM; against NS3 protease domain, 1.7 ± 0.1 nM; in experiment [4], 4.6 ± 0.5 nM. The mechanism of inhibition entry on full-length NS3/4A is given as “competitive inhibition”. For the same compound, the “fold increase of IC50, whole cell lysate 2a vs biochemical assay” value in experiment [2] (sg2a lysate compared to purified enzyme) was around 19 fold. Also, the EC50 with replicon cells 2a was 67 nM; with replicon cells 1b, 3 nM.
